Where a name gives a salt, the structure may show the parent alone.
What was measured:
[1] = target: T1, 5-hydroxytryptamine receptor 1F (Homo sapiens, UniProt P30939)
T1 sequence (P30939 whole entry): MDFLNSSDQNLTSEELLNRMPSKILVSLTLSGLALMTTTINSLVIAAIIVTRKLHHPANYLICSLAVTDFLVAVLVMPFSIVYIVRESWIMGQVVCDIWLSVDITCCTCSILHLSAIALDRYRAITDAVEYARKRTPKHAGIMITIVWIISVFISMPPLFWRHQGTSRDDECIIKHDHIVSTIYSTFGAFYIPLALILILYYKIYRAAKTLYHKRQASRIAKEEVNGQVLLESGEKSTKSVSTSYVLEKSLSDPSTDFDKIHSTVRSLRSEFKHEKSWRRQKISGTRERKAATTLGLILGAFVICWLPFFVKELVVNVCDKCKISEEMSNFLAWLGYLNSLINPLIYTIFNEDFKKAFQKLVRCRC

[2] = target: 5-hydroxytryptamine receptor 4 (Homo sapiens, UniProt Q13639)
Chain of 5-hydroxytryptamine receptor 4 (Q13639 whole entry): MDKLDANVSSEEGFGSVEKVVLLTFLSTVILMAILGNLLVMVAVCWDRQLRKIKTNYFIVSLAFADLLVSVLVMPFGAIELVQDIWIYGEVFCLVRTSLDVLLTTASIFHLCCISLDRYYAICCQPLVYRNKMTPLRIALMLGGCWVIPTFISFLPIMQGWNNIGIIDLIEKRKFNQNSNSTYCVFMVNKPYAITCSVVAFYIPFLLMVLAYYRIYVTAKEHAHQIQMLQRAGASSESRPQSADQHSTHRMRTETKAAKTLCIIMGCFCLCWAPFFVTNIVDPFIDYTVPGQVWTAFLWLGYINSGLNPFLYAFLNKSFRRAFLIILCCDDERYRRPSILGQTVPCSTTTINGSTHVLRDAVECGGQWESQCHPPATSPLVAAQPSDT

[3] = target: 5-hydroxytryptamine receptor 2B (Homo sapiens, UniProt P41595)
Chain of 5-hydroxytryptamine receptor 2B (P41595 whole entry): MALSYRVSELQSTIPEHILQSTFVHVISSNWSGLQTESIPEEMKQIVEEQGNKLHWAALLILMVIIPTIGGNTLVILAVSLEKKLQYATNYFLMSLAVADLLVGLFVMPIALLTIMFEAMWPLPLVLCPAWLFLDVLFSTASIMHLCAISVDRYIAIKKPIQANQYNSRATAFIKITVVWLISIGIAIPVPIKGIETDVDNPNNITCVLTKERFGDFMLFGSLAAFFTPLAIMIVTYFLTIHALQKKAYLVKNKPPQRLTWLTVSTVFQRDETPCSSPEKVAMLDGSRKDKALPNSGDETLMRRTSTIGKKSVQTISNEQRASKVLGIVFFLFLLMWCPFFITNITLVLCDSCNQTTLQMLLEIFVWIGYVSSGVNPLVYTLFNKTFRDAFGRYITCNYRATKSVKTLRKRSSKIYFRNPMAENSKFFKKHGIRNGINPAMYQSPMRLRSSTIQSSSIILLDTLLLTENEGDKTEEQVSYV

[4] = target: T2, 5-hydroxytryptamine receptor 2C (Homo sapiens, UniProt P28335)
T2 sequence (P28335 whole entry): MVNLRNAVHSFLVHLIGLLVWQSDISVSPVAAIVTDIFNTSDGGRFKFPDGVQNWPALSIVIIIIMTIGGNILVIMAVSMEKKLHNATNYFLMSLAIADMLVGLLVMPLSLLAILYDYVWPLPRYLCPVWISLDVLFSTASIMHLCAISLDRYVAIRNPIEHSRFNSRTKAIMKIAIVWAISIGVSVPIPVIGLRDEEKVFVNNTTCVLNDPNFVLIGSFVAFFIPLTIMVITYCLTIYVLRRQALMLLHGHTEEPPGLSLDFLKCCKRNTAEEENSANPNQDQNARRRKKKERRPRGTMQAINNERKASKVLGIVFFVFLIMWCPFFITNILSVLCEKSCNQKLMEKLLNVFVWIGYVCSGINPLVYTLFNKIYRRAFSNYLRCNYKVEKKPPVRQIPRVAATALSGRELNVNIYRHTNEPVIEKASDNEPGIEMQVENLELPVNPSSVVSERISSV

[5] = target: 5-hydroxytryptamine receptor 1E (Homo sapiens, UniProt P28566)
Chain of 5-hydroxytryptamine receptor 1E (P28566 whole entry): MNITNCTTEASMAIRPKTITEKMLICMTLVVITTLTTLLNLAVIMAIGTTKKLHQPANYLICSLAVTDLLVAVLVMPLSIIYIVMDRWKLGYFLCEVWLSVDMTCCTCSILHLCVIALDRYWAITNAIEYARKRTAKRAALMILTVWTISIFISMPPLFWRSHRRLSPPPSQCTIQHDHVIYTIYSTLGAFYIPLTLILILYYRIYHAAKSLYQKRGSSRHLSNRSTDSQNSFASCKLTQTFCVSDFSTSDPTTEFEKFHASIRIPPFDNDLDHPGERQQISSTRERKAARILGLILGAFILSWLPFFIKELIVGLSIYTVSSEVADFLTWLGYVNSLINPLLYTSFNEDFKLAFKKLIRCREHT

[6] = target: 5-hydroxytryptamine receptor 6 (Homo sapiens, UniProt P50406)
Chain of 5-hydroxytryptamine receptor 6 (P50406 whole entry): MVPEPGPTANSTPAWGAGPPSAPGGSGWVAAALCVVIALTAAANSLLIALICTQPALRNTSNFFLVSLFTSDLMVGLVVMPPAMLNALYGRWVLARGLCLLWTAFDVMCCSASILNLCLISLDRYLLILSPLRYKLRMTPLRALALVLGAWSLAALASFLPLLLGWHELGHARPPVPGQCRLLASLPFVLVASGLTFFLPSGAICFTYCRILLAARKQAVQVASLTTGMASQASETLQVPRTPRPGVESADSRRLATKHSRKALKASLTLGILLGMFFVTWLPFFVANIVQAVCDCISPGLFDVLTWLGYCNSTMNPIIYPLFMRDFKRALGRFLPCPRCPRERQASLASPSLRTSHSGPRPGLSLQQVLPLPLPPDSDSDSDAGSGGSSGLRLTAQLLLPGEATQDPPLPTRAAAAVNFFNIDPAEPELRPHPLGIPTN

[7] = target: T3, Alpha-1B adrenergic receptor (Homo sapiens, UniProt P35368)
T3 sequence (P35368 whole entry): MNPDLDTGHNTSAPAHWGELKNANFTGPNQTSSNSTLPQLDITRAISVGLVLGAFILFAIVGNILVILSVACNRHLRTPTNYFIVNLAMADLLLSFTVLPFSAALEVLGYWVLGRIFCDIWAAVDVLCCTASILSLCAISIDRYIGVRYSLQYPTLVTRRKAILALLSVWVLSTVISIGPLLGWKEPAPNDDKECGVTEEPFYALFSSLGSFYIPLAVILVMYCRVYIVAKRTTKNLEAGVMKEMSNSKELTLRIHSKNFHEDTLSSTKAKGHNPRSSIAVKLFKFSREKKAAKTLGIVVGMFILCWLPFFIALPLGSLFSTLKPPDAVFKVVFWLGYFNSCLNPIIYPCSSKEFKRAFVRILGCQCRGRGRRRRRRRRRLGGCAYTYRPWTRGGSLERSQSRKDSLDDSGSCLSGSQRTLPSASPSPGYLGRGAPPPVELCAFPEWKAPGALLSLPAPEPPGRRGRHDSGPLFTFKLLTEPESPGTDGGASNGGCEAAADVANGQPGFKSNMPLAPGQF

Row | Structure (SMILES) | Ki [1] [µM] | Ki [2] [µM] | Ki [3] [µM] | Ki [4] [µM] | Ki [5] [µM] | Ki [6] [µM] | Ki [7] [µM]
1 | CC1CCN(CC[C@H]2CCCN2S(=O)(=O)c2ccc(Cl)c(Cl)c2)CC1 [(R)-1-(2-(1-(3,4-Dichloro-benzenesulfonyl)-pyrrolidin-2-yl)-ethyl)-4-methyl piperidine] | 3.16 | 3.16 |  |  |  |  | 
2 | CC1CCN(CC[C@H]2CCCN2S(=O)(=O)c2cccc(Br)c2)CC1 [(R)-1-(2-(1-(3-bromo-benzenesulfonyl)-pyrrolidin-2-yl)-ethyl)-4-methyl piperidine] | 5.01 | 6.31 | 1.58 | 5.01 | 2.51 |  | 
3 | CC1CCN(CC[C@H]2CCCN2S(=O)(=O)c2cccc3ccccc23)CC1 [(R)-4-Methyl-1-(2-(1-(naphthalene-1-sulfonyl)-pyrrolidin-2-yl)-ethyl)-piperidine(10)] | > 10 |  |  |  | > 10 |  | 

Next, values leading:

Row | Ki [1] [µM] | Ki [2] [µM] | Ki [3] [µM] | Ki [4] [µM] | Ki [5] [µM] | Ki [6] [µM] | Ki [7] [µM] | Structure (SMILES)
4 |  |  |  |  |  | > 10 |  | COc1cccc(S(=O)(=O)N2CCC[C@@H]2CCN2CCC(C)CC2)c1 [(R)-1-(2-(1-(3-methoxy-benzenesulfonyl)-pyrrolidin-2-yl)-ethyl-4-methylpiperidine]
5 | 3.16 |  |  |  |  |  | > 10 | CC1CCN(CC[C@H]2CCCN2S(=O)(=O)c2cccc(O)c2)CC1 [(R)-3-(2-(2-(4-methylpiperidin-1-yl)ethyl)pyrrolidine-1-sulfonyl)phenol]
6 | > 10 | > 10 | 2.51 |  | > 10 |  |  | Cc1cccc(S(=O)(=O)N2CCC[C@@H]2CCN2CCC(C)CC2)c1 [(R)-4-Methyl-1-(2-(1-toluene-3-sulfonyl)-pyrrolidin-2-yl)-ethyl)-piperidine (Oxalate salt)]
